Values of other authors as cited in US10391093B2, “Therapeutic compounds” (Arizona Board of Regents, A Body Corporate of the State of …, priority 2011, dated 2019).

Assays:
[1] = target: hRXRβ (Homo sapiens, UniProt P28702); conditions: read-out: EC50 for the hRXRβ isoform
[2] = system: hRXR; conditions: Caco-2 cells
[3] = target: hRXR; conditions: Caco-2 cells; remark: listed apart in the source

hRXRβ, sequence (P28702 whole entry, canonical isoform): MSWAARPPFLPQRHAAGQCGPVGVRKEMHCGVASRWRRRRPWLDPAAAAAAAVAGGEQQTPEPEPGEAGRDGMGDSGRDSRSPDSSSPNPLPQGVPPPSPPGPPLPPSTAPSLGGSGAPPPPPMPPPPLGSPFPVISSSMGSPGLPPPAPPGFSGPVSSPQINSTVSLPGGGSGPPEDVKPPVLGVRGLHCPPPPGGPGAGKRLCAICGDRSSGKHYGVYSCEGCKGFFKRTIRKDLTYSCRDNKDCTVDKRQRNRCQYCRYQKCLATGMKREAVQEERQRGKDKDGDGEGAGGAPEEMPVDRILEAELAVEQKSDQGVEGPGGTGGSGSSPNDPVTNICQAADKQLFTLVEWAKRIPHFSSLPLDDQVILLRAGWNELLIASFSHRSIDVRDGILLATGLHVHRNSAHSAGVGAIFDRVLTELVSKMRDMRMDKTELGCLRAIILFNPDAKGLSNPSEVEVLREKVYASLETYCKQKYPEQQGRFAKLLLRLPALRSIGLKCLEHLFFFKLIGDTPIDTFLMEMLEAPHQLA

Structure (SMILES) | EC50 [1] [nM] | EC50 [2] [nM] | Kd [3] [nM]
Cc1cc2c(cc1-c1cc(/C=C/C(=O)O)ccc1O)C(C)(C)CCC2(C)C [CD3254] | ~10 | – | –
C=C(c1ccc(C(=O)O)c(F)c1)c1cc2c(cc1C)C(C)(C)CCC2(C)C [Compound 3] | – | 43 | 12
